Reference: patent US20200276164A1, “PHARMACEUTICAL COMBINATIONS FOR THE TREATMENT OF CANCER” (The Queen's University of Belfast, priority 2017, published 2020)

Legend:
[1] = test system: endothelial cell tubule formation; assay: In vitro angiogenesis (V2A vascular tubule formation) assay; assay type: cell-based; settings: 10 days; for stimulation of endothelial cell tubule formation: VEGF 2 ng/ml or rh-IL-8 3 nM
Experimental: The V2A angiogenesis assay (#ZHA-4000, Cellworks, UK) was carried out according to the manufacturer's instruction. Cells were allowed to settle for 4 days prior to treatment. Treatments were carried out in duplicate and were replenished every 2 days for 10 days. For treatments involving conditioned media, PC3 or LNCaP cells were treated as required for 24 h, media harvested and stored at −20° C. Vessels were visualized at 4× magnification. Vessel density was measured in four fields per well using AngioSys 2.0 software (Cellworks, UK).

hypoxic LNCaP cells [2] = assay: qPCR of hypoxia-induced gene expression in LNCaP cells; assay type: cell-based, human; settings: MDV3100 10 μM
Experimental: (§1) Authenticated PC3 (ATCC CRL-1435), LNCaP (ATCC CRL-1740) and 22Rv1 (ATCC CRL-2505) cells were cultured as described in Seaton et al. (Carcinogenesis 2008; 29: 1148-56). C4-2B cells were maintained in RPMI 1640 supplemented with 10% fetal calf serum (FCS). MDV3100-sensitive (LNCaP-Par) and resistant (LNCaP-EnzR) cells were obtained from Prof. Vander Griend, University of Chicago, Chicago, Ill., and were cultured as described in Kregel et al. (Oncotarget 2016; 7: 26259-74). HUVEC (ATCC CRL-1730) cells were maintained in Endothelial Cell Growth Medium (#CC-3162, Lonza, UK). For experiments involving hypoxia (0.1% 02), cells were cultured as previously reported (Maxwell et al., Oncogene 2007; 26: 7333-45). Human IL-8 monoclonal antibody (#MAB208), human VEGF mAb (#AB293NA) and isotype-matched IgG (#MAB002) were obtained from R&D Systems (UK). MDV3100 (#S1250) was obtained from Selleckchem (Germany). Cells were regularly tested to ensure they were free of mycoplasma contamination.
Nucleic acid samples were prepared and analyzed as previously described (Maxwell et al., Oncogene 2007; 26: 7333-45; Maxwell et al., Eur Urol 2013; 64: 177-88). Primer sequences were as follows: AR: Forward, 5′-[…]-3′ (SEQ ID NO: 1); Reverse, 5′-[…]-3′ (SEQ ID NO: 2); PSA/KLK3: Forward, 5′-[…]-3′ (SEQ ID NO: 3); Reverse, 5′-TTGCGCACACACGTCATT-3′ (SEQ ID NO: 4). Primer sequences for 18s, BCL2, CAIX, IL-8, and VEGF have been previously reported (Maxwell et al., Oncogene 2007; 26: 7333-45; Lekas et al., Urol Res 1997; 25: 309-14).

LNCaP xenograft = LNCaP xenograft study, tumour growth
Experimental: MDV3100 (in 0.1% DMSO in corn oil) was administered orally (p.o). Vehicle control (VC) or MDV3100 (4 mg/kg, equivalent to 100 mg/day in men) was administered daily. Human IL-8 and VEGF nAbs were administered 3×/week via intraperitoneal (i.p.) injection, at a final concentration of 50 μg/ml and 100 μg/ml, respectively. IgG control was at a final concentration of 150 μg/ml.
LNCaP cells (1×10^7 in Matrigel) were implanted on the rear dorsum of 8-10-week-old male Balb/c SCID mice. When tumour volume was 150-200 mm^3, mice were randomly assigned to treatment groups (3-5 per group). […] Mice were sacrificed at day 28 or day 35. Tumour growth over 28 days (% T/C) was calculated using the equation: % T/C=(mean tumour volume on day 28−mean starting volume)/(mean control tumour volume on day 28−mean control starting volume)×100.
Tumours were measured 3×/week using digital calipers. The length and width of the tumour was measured and the volume calculated using the formula volume=(length×width 2)/2. *, numbers in brackets show % T/C compared to enzalutamide alone at day 28; **, control is enzalutamide alone.

LNCaP cells [3] = assay: LNCaP cell viability (MTT assay), normoxia or hypoxia; assay type: cell-based, human; settings: 10 μM, 72 h
Experimental: as §1
(§2) Cell viability was assessed by 3-(4,5-dimethylthiazol-2-yl)-2,5-diphenyltetrazolium bromide (MTT) assay as previously described (Maxwell et al., Oncogene 2007; 26: 7333-45).

PC3 cells [4] = assay: PC3 cell viability assay; assay type: cell-based, human; settings: increasing concentrations, 72 h, relative to DMSO vehicle control
Experimental: as §2

HUVEC cells = assay: HUVEC apoptosis (Annexin V/PI staining); assay type: cell-based, human; settings: 10 μM, 72 h
Experimental: FIG. 1 illustrates that MDV3100 treatment directly affects tumour vasculature. (A) Graph illustrating measured intra-tumoural oxygenation levels in growing MDV3100-treated LNCaP tumours, in the absence and presence of anti-IL-8 nAb (50 μg/ml) and/or anti-VEGF nAb (100 μg/ml). Values shown are mean (±SD). (B) Bar graph presenting time-dependent changes in tumour vessel density over time in MDV3100-treated LNCaP tumours, in the absence or presence of anti-IL-8 nAb (50 μg/ml) and/or anti-VEGF nAb (100 μg/ml). Stereological methods were used to analyze change in vessel density over time in all treatment groups and values were used to calculate percentage area covered by vessels. […] Data shown are the mean (±SEM) of four individual experiments. […] Viability was determined by MTT assay. […] Apoptosis was assessed by Annexin V/PI staining. […] The number of junctions was measured using AngioSys 2.0 software. […] For all data, statistically significant differences were determined using a Student's two-tailed t-test or Mann-Whitney U test:* p<0.05, ** p<0.01, *** p<0.001.
To further understand the events contributing to MDV3100-promoted hypoxia, we studied the direct effect of MDV3100 administration upon vascular endothelial cells using two independent i assays. In agreement with previous studies, we detected AR mRNA in HUVEC endothelial cells by qPCR analysis (FIG. 1C, top panel). […]

LNCaP cells [5] = assay: PARP immunoblot in LNCaP cells; assay type: cell-based, human; settings: 10 μM, 72 h
Experimental: (§3) Immunoblotting was performed as previously described (McCourt et al., Clin Cancer Res 2012; 18:3822-33). Antibodies were obtained as follows: AR, Millipore (#PG-21, UK); AR-V7 (#ab198394) & PARP (#14-6667-82), Abcam (UK); Bcl-2 (#4223), Cell Signalling Technology (The Netherlands); c-FLIP (#AG-20B-0056), Adipogen (Switzerland); RELA(p65) (#sc-372), Santa Cruz (CA, USA); GAPDH (#MCA4740), Biorad (UK).

LNCaP tumours = assay: Tumour oxygenation measurement in LNCaP xenograft model; assay type: in vivo, Balb/c SCID mice; settings: MDV3100 4 mg/kg p.o. daily, nAbs i.p. 3x/week (anti-IL-8 50 μg/ml, anti-VEGF 100 μg/ml), over 28 days
Experimental: Tumour oxygenation was measured once weekly as previously described (Ming et al., Int J Cancer 2013; 132:1323-32).

PC3 cells [6] = assay: Chick embryo experimental metastasis model (CAM assay), PC3 colonization; assay type: in vivo; settings: over five days; 0.1 mL of 20 μM solution i.v. per embryo on days 1 and 2
Experimental: Experimental metastasis assays were performed in chick embryos as described (Deryugina et al., Histochem Cell Biol 2008; 130: 1119-30). On day 12 of incubation, PC3 cells were injected directly into the blood circulation through an allantoic vein (1×10^5 cells in 0.1 mL serum-free medium per embryo). MDV3100 was delivered i.v. on days 1 and 2 after cell inoculations (0.1 mL of a 20 μM solution per embryo). On day 5, portions of the CAM were harvested to quantify the number of human tumour cells by human-specific Alu-qPCR as previously described (Deryugina et al., Cancer Res 2005; 65: 10959-69), using a standard curve generated by serial dilutions of human tumour cells within a constant number (1×10^6) of chick embryo fibroblasts.

C4-2B cells = assay: C4-2B cell viability assay; assay type: cell-based; settings: 72 h
Experimental: as §1, §2

LNCaP-EnzR cells [7] = assay: Immunoblot of PARP, AR, c-FLIP and Bcl-2 in LNCaP-EnzR cells; assay type: cell-based, human; settings: MDV3100 10 μM, 72 h
Experimental: as §3

[8] = HUVEC cell viability (MTT assay); assay type: cell-based; settings: human, HUVEC cells, read-out: reduction of viability of HUVEC cells
Experimental: as §2

LNCaP tumour vasculature = assay: Dorsal skin flap model, tumour vessel coverage; assay type: in vivo, Balb/c SCID mice
Experimental: A viewing chamber was attached to a raised skin flap on the dorsal surface of the mouse (Balb/c SCID) and a fragment (˜0.5 mm) of LNCaP tumour was placed on the microvascular as previously described (9). Tumour vasculature was imaged weekly/4 weeks using a stereomicroscope. Image analysis was carried out using Touptek software (Touptek Photonics, China).

hypoxic LNCaP cells [9] = assay: ELISA of secreted VEGF and IL-8 from hypoxic LNCaP cells; assay type: cell-based, human; settings: MDV3100 10 μM, relative to DMSO
Experimental: as §1
Secreted IL-8 (#M1918, Pelikine, Mast Group, UK), and VEGF (#DY293B, R&D Systems, UK) were measured by ELISA as per manufacturer's instructions.

LNCaP-EnzR cells [10] = assay: LNCaP-EnzR (MDV3100-resistant) cell viability assay; assay type: cell-based, human; settings: MDV3100 10 μM, relative to DMSO control
Experimental: as §1, §2

CNC(=O)c1ccc(N2C(=S)N(c3ccc(C#N)c(C(F)(F)F)c3)C(=O)C2(C)C)cc1F [MDV3100, Enzalutamide]
tubule formation with conditioned medium from MDV3100-treated PC3 cells ([1]; CM of PC3 cells cultured with MDV3100 10 μM): no detrimental effect on tubule formation | development of branching junctions (vascular tubule formation) ([1]; MDV3100 10 μM): significantly impaired the development of branching junctions | hypoxia-induced up-regulation of BCL2 (qPCR) (hypoxic LNCaP cells [2]): failed to reverse | hypoxia-induced up-regulation of CAIX (qPCR) (hypoxic LNCaP cells [2]): failed to reverse | hypoxia-induced expression of VEGF and IL-8 (qPCR) (hypoxic LNCaP cells [2]; relative to DMSO): failed to attenuate | Tumour volume at day 28 (mm^3) (±SD) (LNCaP xenograft; day 28, MDV3100 4 mg/kg p.o. daily, antibodies i.p. 3x/week): 423 (±90) mm^3 | reduction in tumour volume / tumour growth (LNCaP xenograft; treatment-day 28, over 28 days): 59.5% | % T/C (LNCaP xenograft; tumour growth over 28 days versus vehicle control): 39.0% | viability of LNCaP cells (LNCaP cells [3]; hypoxic conditions): ineffective | viability of LNCaP cells (LNCaP cells [3]; normoxia, relative to DMSO control): reduced the viability | viability of PC3 cells (PC3 cells [4]): unresponsive | induction of apoptosis in HUVEC cells (HUVEC cells; hypoxia): significantly enhanced | induction of apoptosis in HUVEC cells (HUVEC cells; normoxic culture conditions): minimal | full-length PARP protein (immunoblot) (LNCaP cells [5]; hypoxic LNCaP cells): stabilization of PARP | full-length PARP protein (immunoblot) (LNCaP cells [5]; normoxic LNCaP cells): loss of full-length PARP protein | intra-tumoural oxygen levels (LNCaP tumours): rapid, profound drop in tumour oxygen levels over the initial 14 days | PC3 colonization in the CAM assay (PC3 cells [6]): significantly enhanced PC3 colonization | sensitivity of C4-2B cells (viability) (C4-2B cells; hypoxia, 10 μM): reduced sensitivity | sensitivity of C4-2B cells (viability) (C4-2B cells; normoxic culture conditions): intermediate sensitivity | expression of full-length PARP (immunoblot) (LNCaP-EnzR cells [7]): clearly increased | cytotoxicity at 72 h, 10 μM ([8]; 10 μM): 10% | cytotoxicity at 72 h, 50 μM ([8]; 50 μM): 17% | vessel coverage (percentage area covered by tumour vessels) (LNCaP tumour vasculature; 14 days): 5.2±2.2% | vessel coverage (percentage area covered by tumour vessels) (LNCaP tumour vasculature; after 7 days of treatment): 8.2±2.3% | vessel coverage (percentage area covered by tumour vessels) (LNCaP tumour vasculature; day 21): 10.3±3.1% | vessel coverage (percentage area covered by tumour vessels) (LNCaP tumour vasculature; day 28): 14.7±2.6% | hypoxia-induced secretion of VEGF and IL-8 (ELISA) (hypoxic LNCaP cells [9]): failed to attenuate | viability of LNCaP-EnzR cells (LNCaP-EnzR cells [10]): no effect

VEGF
stimulation of endothelial cell tubule formation [1]: directly stimulated endothelial cell tubule formation

rh-IL-8: exogenous rh-IL-8 (3 nM) added in the tubule formation assay
stimulation of endothelial cell tubule formation [1]: less potent in stimulating tubule formation
